According to US9079866B2, “Flap modulators” (JANSSEN PHARMACEUTICA NV, priority 2013, dated 2015):
pIC50, pKi: −log10 of the molar value.

How the values were obtained:
[1] = test system: leukotriene pathway in human whole blood (LTB4 levels); test: Human whole blood assay (A23187-stimulated LTB4); format: cell-based; conditions: Homo sapiens, human whole blood diluted 1:1, A23187-stimulated; read-out: LTB4 IC50 1:1
Summary of the method: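 Single-replicate data from at least one healthy donor: compound pre-incubated 15 min at 37° Celsius in 1:1 RPMI-diluted heparinised blood, followed by 30 min calcium ionophore A23187 (7 μg/mL) challenge at 37° Celsius. LTB4 in plasma quantified by kit; IC50 via 4-parameter equation.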

human FLAP = human FLAP (Homo sapiens (Human), UniProt P20292); test: FLAP binding assay (HTRF format); conditions: wild type FLAP, HTRF format
Summary of the method: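 Samples were run in duplicate on each of two assay plates, the results were averaged, and the signal was expressed as an HTRF ratio.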

human FLAP, sequence (P20292 whole entry): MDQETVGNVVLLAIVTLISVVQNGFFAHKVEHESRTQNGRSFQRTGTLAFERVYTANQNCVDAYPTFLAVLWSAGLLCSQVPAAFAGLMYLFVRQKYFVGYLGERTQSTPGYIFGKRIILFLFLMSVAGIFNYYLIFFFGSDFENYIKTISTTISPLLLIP

Structure (SMILES) | pIC50 [1] | pKi (human FLAP)
Nc1cnc(-c2ccc(-c3ccccc3NS(=O)(=O)c3ccccc3)cc2F)cn1 [Example 479, N-[4′-(5-Aminopyrazin-2-yl)-3′-fluorobiphenyl-2-yl]benzenesulfonamide] | 6.24 | 8.22
Nc1cnc(-c2ccc(-c3ccccc3OCC(F)(F)F)cc2F)cn1 [Example 484, 5-[3-Fluoro-2′-(2,2,2-trifluoroethoxy)biphenyl-4-yl]pyrazin-2-amine] | 5.46 | 7.11
Nc1cnc(-c2ccc(-c3cccnc3OCC3CC3)cc2F)cn1 [Example 488, 5-{4-[2-(Cyclopropylmethoxy)pyridin-3-yl]-2-fluorophenyl}pyrazin-2-amine] | 5.78 | 7.01
CCS(=O)(=O)Nc1ccccc1-c1ccc(-c2cnc3[nH]ccc3n2)c(F)c1 [Example 491, N-[3′-Fluoro-4′-(5H-pyrrolo[2,3-b]pyrazin-2-yl)biphenyl-2-yl]ethanesulfonamide] | 6.67 | 7.82
CN(c1ccccc1-c1ccc(-c2cnc3[nH]ccc3n2)c(F)c1)S(C)(=O)=O [Example 492, N-[3′-Fluoro-4′-(5H-pyrrolo[2,3-b]pyrazin-2-yl)biphenyl-2-yl]-N-methylmethanesulfonamide] | 6.81 | 7.82
CCS(=O)(=O)N(C)c1ccccc1-c1ccc(-c2cnc(N)cn2)c(F)c1 [Example 494, N-[4′-(5-Aminopyrazin-2-yl)-3′-fluorobiphenyl-2-yl]-N-methylethanesulfonamide] | 7.00 | 7.49
CCN(c1ccccc1-c1ccc(-c2cnc(N)cn2)c(F)c1)S(C)(=O)=O [Example 496, N-[4′-(5-Aminopyrazin-2-yl)-3′-fluorobiphenyl-2-yl]-N-ethylmethanesulfonamide] | 6.78 | 7.72
O=C(c1ccccc1-c1ccc(-c2cnc3[nH]ccc3n2)c(F)c1)N1CCOCC1 [Example 500, 2-[3-Fluoro-2′-(morpholin-4-ylcarbonyl)biphenyl-4-yl]-5H-pyrrolo[2,3-b]pyrazine] | 6.86 | 7.32
CC(C)(C)NC(=O)c1cc(F)ccc1-c1ccc(-c2cnc(N)cn2)c(F)c1 [Example 502, 4′-(5-Aminopyrazin-2-yl)-N-tert-butyl-3′,4-difluorobiphenyl-2-carboxamide] | 6.44 | 7.08
CCN(CC)C(=O)c1ccccc1-c1ccc(-c2cnc(N)cn2)c(F)c1 [Example 503, 4′-(5-Aminopyrazin-2-yl)-N,N-diethyl-3′-fluorobiphenyl-2-carboxamide] | 7.04 | 7.85
Nc1cnc(-c2ccc(-c3ccccc3C(=O)N3CCS(=O)(=O)CC3)cc2F)cn1 [Example 509, 5-{2′-[(1,1-Dioxidothiomorpholin-4-yl)carbonyl]-3-fluorobiphenyl-4-yl}pyrazin-2-amine] | 7.03 | 6.83
C[C@@H](NC(=O)c1ccccc1-c1ccc(-c2cnc(N)cn2)c(F)c1)C(F)(F)F [Example 511, 4′-(5-Aminopyrazin-2-yl)-3′-fluoro-N-[(1R)-2,2,2-trifluoro-1-methylethyl]biphenyl-2-carboxamide] | 6.49 | 6.67
C[C@H](CO)NC(=O)c1ccccc1-c1ccc(-c2cnc(N)cn2)c(F)c1 [Example 512, 4′-(5-Aminopyrazin-2-yl)-3′-fluoro-N-[(1R)-2-hydroxy-1-methylethyl]biphenyl-2-carboxamide] | 6.33 | 6.35
Nc1cnc(-c2ccc(-c3ccccc3C(=O)N3CCC(O)CC3)cc2F)cn1 [Example 514, 1-{[4′-(5-Aminopyrazin-2-yl)-3′-fluorobiphenyl-2-yl]carbonyl}piperidin-4-ol] | 6.83 | 6.88
Nc1cnc(-c2ccc(-c3ccc(C(F)(F)F)cc3C(=O)N3CCOCC3)cc2F)cn1 [Example 521, 5-[3-Fluoro-2′-(morpholin-4-ylcarbonyl)-4′-(trifluoromethyl)biphenyl-4-yl]pyrazin-2-amine] | 7.89 | 8.30
Nc1ncc(-c2ccc(-c3ccc(C(F)(F)F)cc3C(=O)N3CCOCC3)cc2F)cn1 [Example 522, 5-[3-Fluoro-2′-(morpholin-4-ylcarbonyl)-4′-(trifluoromethyl)biphenyl-4-yl]pyrimidin-2-amine] | 6.41 | 6.46
Fc1cc(-c2ccccc2Oc2ncccn2)ccc1-c1cnc2[nH]ccc2c1 [Example 525, 5-[3-Fluoro-2′-(pyrimidin-2-yloxy)biphenyl-4-yl]-1H-pyrrolo[2,3-b]pyridine] | 7.44 | 8.52
N#Cc1cccnc1Oc1ccccc1-c1ccc(-c2cnc(N)cn2)c(F)c1 [Example 532, 2-{[4′-(5-Aminopyrazin-2-yl)-3′-fluorobiphenyl-2-yl]oxy}pyridine-3-carbonitrile] | 7.49 | 8.22
Nc1cnc(-c2ccc(-c3ccccc3Oc3ccnc(N)n3)cc2F)cn1 [Example 533, 4-{[4′-(5-Aminopyrazin-2-yl)-3′-fluorobiphenyl-2-yl]oxy}pyrimidin-2-amine] | 7.64 | 8.30
Nc1cnc(-c2ccc(-c3ccccc3Oc3cc(N)ncn3)cc2F)cn1 [Example 535, 6-{[4′-(5-Aminopyrazin-2-yl)-3′-fluorobiphenyl-2-yl]oxy}pyrimidin-4-amine] | 7.77 | 9.00
Nc1cc(Oc2ccccc2-c2ccc(-c3cnc(N)nc3)c(F)c2)ncn1 [Example 536, 5-{2′-[(6-Aminopyrimidin-4-yl)oxy]-3-fluorobiphenyl-4-yl}pyrimidin-2-amine] | 7.17 | 7.68

Further lines, results first:

pIC50 [1] | pKi (human FLAP) | Structure (SMILES)
6.35 | 7.27 | CC(C)Oc1ccccc1-c1ccc(-c2cnc(N)cn2)c(F)c1 [Example 487, 5-[3-Fluoro-2′-(1-methylethoxy)biphenyl-4-yl]pyrazin-2-amine]
6.57 | 6.45 | CN(c1ccccc1-c1ccc(-c2cnc(N)cn2)c(F)c1)S(C)(=O)=O [Example 490, N-[4′-(5-Aminopyrazin-2-yl)-3′-fluorobiphenyl-2-yl]-N-methylmethanesulfonmide]
6.52 | 8.15 | CCS(=O)(=O)N(C)c1ccccc1-c1ccc(-c2cnc3[nH]ccc3n2)c(F)c1 [Example 493, N-[3′-Fluoro-4′-(5H-pyrrolo[2,3-b]pyrazin-2-yl)biphenyl-2-yl]-N-methylethanesulfonamide]
6.29 | 8.40 | CC(C)CS(=O)(=O)Nc1ccccc1-c1ccc(-c2cnc3[nH]ccc3n2)c(F)c1 [Example 495, N-[3′-Fluoro-4′-(5H-pyrrolo[2,3-b]pyrazin-2-yl)biphenyl-2-yl]-2-methylpropane-1-sulfonamide]
6.29 | 7.60 | CC(C)CS(=O)(=O)N(C)c1ccccc1-c1ccc(-c2cnc(N)cn2)c(F)c1 [Example 497, N-[4′-(5-Aminopyrazin-2-yl)-3′-fluorobiphenyl-2-yl]-N,2-dimethylpropane-1-sulfonamide]
6.95 | 7.80 | O=C(c1ccccc1-c1ccc(-c2cnc3[nH]ccc3c2)c(F)c1)N1CCOCC1 [Example 498, 5-[3-Fluoro-2′-(morpholin-4-ylcarbonyl)biphenyl-4-yl]-1H-pyrrolo[2,3-b]pyridine]
7.15 | 7.74 | C[C@H](NC(=O)c1ccccc1-c1ccc(-c2cnc(N)cn2)c(F)c1)C(F)(F)F [Example 505, 4′-(5-Aminopyrazin-2-yl)-3′-fluoro-N-[(1S)-2,2,2-trifluoro-1-methylethyl]biphenyl-2-carboxamide]
7.60 | 9.00 | Nc1nccc(Oc2ccccc2-c2ccc(-c3cnc4[nH]ccc4c3)c(F)c2)n1 [Example 523, 4-{[3′-Fluoro-4′-(1H-pyrrolo[2,3-b]pyridin-5-yl)biphenyl-2-yl]oxy}pyrimidin-2-amine]
7.74 | 9.00 | Nc1ccnc(Oc2ccccc2-c2ccc(-c3cnc4[nH]ccc4c3)c(F)c2)n1 [Example 524, 2-{[3′-Fluoro-4′-(1H-pyrrolo[2,3-b]pyridin-5-yl)biphenyl-2-yl]oxy}pyrimidin-4-amine]
6.74 | 7.13 | Nc1ncc(-c2ccc(-c3ccccc3Oc3ncccn3)cc2F)cn1 [Example 527, 5-[3-Fluoro-2′-(pyrimidin-2-yloxy)biphenyl-4-yl]pyrimidin-2-amine]
7.47 | 8.30 | Nc1cnc(-c2ccc(-c3ccccc3Oc3nccc(N)n3)cc2F)cn1 [Example 528, 2-{[4′-(5-Aminopyrazin-2-yl)-3′-fluorobiphenyl-2-yl]oxy}pyrimidin-4-amine]
7.05 | 7.44 | Nc1ccnc(Oc2ccccc2-c2ccc(-c3cnc(N)nc3)c(F)c2)n1 [Example 529, 5-{2′-[(4-Aminopyrimidin-2-yl)oxy]-3-fluorobiphenyl-4-yl}pyrimidin-2-amine]
5.95 | 7.47 | N#Cc1cccc(COc2ccccc2-c2ccc(-c3cnc(N)cn3)c(F)c2)n1 [Example 530, 6-({[4′-(5-Aminopyrazin-2-yl)-3′-fluorobiphenyl-2-yl]oxy}methyl)pyridine-2-carbonitrile]
6.49 | 8.10 | N#Cc1cccnc1COc1ccccc1-c1ccc(-c2cnc(N)cn2)c(F)c1 [Example 531, 2-({[4′-(5-Aminopyrazin-2-yl)-3′-fluorobiphenyl-2-yl]oxy}methyl)pyridine-3-carbonitrile]
7.16 | 7.92 | Nc1ncc(-c2ccc(-c3ccccc3Oc3ccnc(N)n3)cc2F)cn1 [Example 534, 4-{[4′-(2-Aminopyrimidin-5-yl)-3′-fluorobiphenyl-2-yl]oxy}pyrimidin-2-amine]
7.38 | 8.52 | N#Cc1cc(Oc2ccccc2-c2ccc(-c3cnc(N)cn3)c(F)c2)ccn1 [Example 537, 4-{[4′-(5-Aminopyrazin-2-yl)-3′-fluorobiphenyl-2-yl]oxy}pyridine-2-carbonitrile]
